This passage reports IC50 results from patent US12083118B2, “Substituted 1,1′-biphenyl compounds, analogues thereof, and methods using same” (Arbutus Biopharma Corporation, priority 2018, dated 2024).

Molecules are shown by their SMILES.

The target in this assay is PD-L1 (Homo sapiens (Human), UniProt Q9NZQ7). The experiment in a line: HTRF Assay (PD-1/PD-L1). Type of assay: binding. Conditions: PD-L1 His protein 6 nM, PD-1 Fc protein 6 nM. The procedure:
PD-L1 small molecule inhibitors were diluted by 3-fold starting from 20 μM and a final concentration of 0.001 μM and added to the well. PD-1 Fc protein was added at the final concentration of 6 nM. PD-L1 His protein, PD-L1 small molecule inhibitors, and PD1 Fc proteins were added to the well in this order, with each 5 μl volume, and were incubated for 15 minutes at room temperature. […] The plate was read using PerkinElmer Envision plate reader and data was analyzed by Prism 6 software. Results are illustrated in Table 1

Chain of PD-L1 (Q9NZQ7 19-238): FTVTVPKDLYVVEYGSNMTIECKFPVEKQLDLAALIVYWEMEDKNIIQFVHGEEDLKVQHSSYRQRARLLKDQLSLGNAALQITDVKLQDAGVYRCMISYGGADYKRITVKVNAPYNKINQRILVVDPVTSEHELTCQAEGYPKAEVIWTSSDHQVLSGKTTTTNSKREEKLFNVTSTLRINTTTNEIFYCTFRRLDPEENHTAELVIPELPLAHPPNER

With `COc1cc(OCc2cccc(-c3cccc(COc4cc(OC)c(CN5CCCC[C@H]5C(=O)O)cc4Cl)c3C)c2C)c(Cl)cc1CN1CCCC[C@H]1C(=O)O` [Example 29, (2S)-1-[[4-[[3-[3-[[4-[[(2S)-2-carboxy-1-piperidyl]methyl]-2-chloro-5-methoxy-phenoxy]methyl]-2-methyl-phenyl]-2-methyl-phenyl]methoxy]-5-chloro-2-methoxy-phenyl]methyl]piperidine-2-carboxylic acid], the IC50 amounted to 1.2 nM.
With `Cc1c(COc2cc(OCc3cncc(C#N)c3)c(CN3CCCC[C@H]3C(=O)O)cc2Cl)cccc1-c1cccc(COc2cc(OCc3cncc(C#N)c3)c(CN3CCCC[C@H]3C(=O)O)cc2Cl)c1C` [Example 27, (2S)-1-[[4-[[3-[3-[[4-[[(2S)-2-Carboxy-1-piperidyl]methyl]-2-chloro-5-[(5-cyano-3-pyridyl)methoxy]phenoxy]methyl]-2-methyl-phenyl]-2-methyl-phenyl]methoxy]-5-chloro-2-[(5-cyano-3-pyridyl)methoxy]phenyl]methyl] piperidine-2-carboxylic acid] the figure was 1.3 nM.

The IC50 is the concentration that gives 50% inhibition.
